Data on one compound can be found in patent US20250144066A1, “Prevention and Treatment of Parasitic Infections” (priority 2017, published 2025).

pEC50: −log10 of the molar value. In brackets after ≈: the same amount, converted by molar mass.

The test system of data set [1] is Zika Virus. Nature of the data set: Zika prevention, virus yield reduction (VYR), Huh7, 4 h pre-incubation (Zika-138). The format is cell-based. The following applies: for Virus Titer: 4 hr pre-incubation, Huh7 cells. How it is done: An experiment was carried out as specified in Example 8. In a Zika Prevention Trial, MPA was pre-incubated with human cells 4 hours or 24 hours before Zika virus infection.

Data set [2] concerns human norovirus (NV, GT1). In words: Human norovirus replicon, qPCR, HG23, secondary (17-14). The following applies: Norovirus. The format is cell-based. The text has this: Secondary testing was done with human norovirus.
In general terms: In antiviral work, replicon cells carry a viral genome segment that copies itself.

Data set [3] has as its system MDCK. The following applies: Neutral Red (Toxicity).
Data set [4] in a line: Neutral Red toxicity in Huh7 cells, 24 h pre-incubation (Zika-138). The following applies: human.
Data set [5] relates to Vero76. The following applies: African green monkey.

A word on the EC90: it is the concentration needed for an effect of 90%. One may read the pEC50 as the EC50 on a negative log10 scale, so that one unit is a factor of ten. Consider `COc1c(C)c2c(c(O)c1C/C=C(\C)CCC(=O)O)C(=O)OC2` [EP1601, 6-(4-hydroxy-6-methoxy-7-methyl-3-oxo-1,3-dihydroisobenzofuran-5-yl)-4-methyl-hex-4-enoic acid], for which the “Virus Titer” value stood at 4.5 Log10 CCID50/0.1 ml in data set [1] (MPA 0.1 μg/ml); 4.5 Log10 CCID50/0.1 ml in data set [1] (MPA 1 μg/ml); 4.5 Log10 CCID50/0.1 ml in data set [1] (MPA 10 μg/ml); 4.5 Log10 CCID50/0.1 ml in data set [1] (MPA 32 μg/ml); 0.67 Log10 CCID50/0.1 ml in data set [1] (MPA 100 μg/ml). For the same compound, the EC90 was found to be 42.7 µg/mL (≈ 133 µM) in data set [1] (Zika virus, Huh-7, Visual (Virus yield reduction), Huh7, pre-incubated 4 hours prior to infection, read-out: EC90) and 1100 nM in data set [2]. In addition, the “mitigation of infection by Zika virus” value in data set [1] (given 4 hours before the infection) is recorded as “strongly mitigated the infection”. Besides, the pEC50 in data set [2] was 6.66. Moreover, the figures for the CC50 in data set [3], in data set [4] and in data set [5] were greater than 100 µM, 1.4 µg/mL (≈ 4.37 µM) and 17 µg/mL (≈ 53.1 µM), respectively.
